In brackets after ≈: the same amount, converted by molar mass. Activity calls are given as the source filed them. No cut-off for these calls is given here.
Key:
Staphylococcus aureus [1] = assay: Antibacterial activity against Staphylococcus aureus USA400 incubated for 16 to 24 hrs by broth microdilution method; type: functional; details: time 16-24 hrs
Staphylococcus aureus [2] = assay: Antibacterial activity against Staphylococcus aureus NCTC 8325-4 incubated for 16 to 24 hrs by broth microdilution method; type: functional; details: time 16-24 hrs
Staphylococcus aureus [3] = assay: Antibacterial activity against Staphylococcus aureus ATCC 25923 incubated for 16 to 24 hrs by broth microdilution method; type: functional; details: time 16-24 hrs
Listeria monocytogenes [4] = assay: Antibacterial activity against Listeria monocytogenes ATCC 19115 incubated for 16 to 24 hrs by broth microdilution method; type: functional; details: time 16-24 hrs
Staphylococcus aureus [5] = assay: Antibacterial activity against methicillin-resistant Staphylococcus aureus MRSA 1 incubated for 16 to 24 hrs by broth microdilution method; type: functional; details: Staphylococcus aureus, MRSA 1, time 16-24 hrs; read-out: MIC
Streptococcus suis [6] = assay: Antibacterial activity against Streptococcus suis ZY05719 incubated for 16 to 24 hrs by broth microdilution method; type: functional; details: time 16-24 hrs
Acinetobacter baumannii [7] = assay: Antibacterial activity against Acinetobacter baumannii ATCC 17978 incubated for 16 to 24 hrs by broth microdilution method; type: functional; details: time 16-24 hrs
Acinetobacter baumannii [8] = assay: Antibacterial activity against Acinetobacter baumannii ATCC 19606 incubated for 16 to 24 hrs by broth microdilution method; type: functional; details: time 16-24 hrs
Escherichia coli [9] = assay: Antibacterial activity against Escherichia coli […] incubated for 16 to 24 hrs by broth microdilution method; type: functional; details: time 16-24 hrs
Klebsiella pneumoniae [10] = assay: Antibacterial activity against Klebsiella pneumoniae E8.31 incubated for 16 to 24 hrs by broth microdilution method; type: functional; details: time 16-24 hrs
Staphylococcus aureus [11] = assay: Bactericidal activity against methicillin-resistant Staphylococcus aureus MRSA 1; type: functional
Staphylococcus aureus [12] = assay: Bactericidal activity against methicillin-resistant Staphylococcus aureus MRSA 2; type: functional
Staphylococcus aureus [13] = assay: Bactericidal activity against Staphylococcus aureus USA300; type: functional
Staphylococcus aureus [14] = assay: Bactericidal activity against Staphylococcus aureus USA400; type: functional
Staphylococcus aureus [15] = assay: Bactericidal activity against Staphylococcus aureus ATCC 29213; type: functional
Staphylococcus aureus [16] = assay: Bactericidal activity against Staphylococcus aureus NCTC 8325-4; type: functional
Staphylococcus aureus [17] = assay: Bactericidal activity against Staphylococcus aureus DU1090; type: functional
Listeria monocytogenes [18] = assay: Bactericidal activity against Listeria monocytogenes ATCC 19115; type: functional
Acinetobacter baumannii [19] = assay: Bactericidal activity against Acinetobacter baumannii ATCC 19606; type: functional
Escherichia coli [20] = assay: Bactericidal activity against Escherichia coli ATCC 25922; type: functional
Klebsiella pneumoniae [21] = assay: Bactericidal activity against Klebsiella pneumoniae 13b5; type: functional
Klebsiella pneumoniae [22] = assay: Bactericidal activity against Klebsiella pneumoniae E8.31; type: functional
Staphylococcus aureus [23] = assay: Bacteriostatic activity against methicillin-resistant Staphylococcus aureus USA300 at 1 to 2 times MIC measured upto 24 hrs by time-kill assay; type: functional, organism-based
Streptococcus suis [24] = assay: Bactericidal activity against Streptococcus suis ZY05719 measured upto 24 hrs by time-kill assay; type: functional, organism-based
Listeria monocytogenes [25] = assay: Bactericidal activity against Listeria monocytogenes EGD measured upto 24 hrs by time-kill assay; type: functional, organism-based
Listeria monocytogenes [26] = assay: Inhibition of biofilm formation in Listeria monocytogenes EGD incubated for 24 hrs by crystal violet staining based analysis; type: functional, organism-based; details: dose <= 0.13 µg/ml
Staphylococcus aureus [27] = assay: Disruption of cell membrane integrity in Staphylococcus aureus USA300 assessed as irregular cell structures at 4 to 8 times MIC by TEM/SEM analysis; type: functional, organism-based
Staphylococcus aureus [28] = assay: Disruption of cell membrane integrity in Staphylococcus aureus USA300 assessed as indistinct cytoplasmic borders at 4 to 8 times MIC by TEM/SEM analysis; type: functional, organism-based
Staphylococcus aureus [29] = assay: Disruption of cell membrane integrity in Staphylococcus aureus USA300 assessed as swelling at 4 to 8 times MIC by TEM/SEM analysis; type: functional, organism-based
Staphylococcus aureus [30] = assay: Disruption of cell membrane integrity in Staphylococcus aureus USA300 assessed as visible cavity formation on surface at 4 to 8 times MIC by TEM/SEM analysis; type: functional, organism-based
Staphylococcus aureus [31] = assay: Induction of cell permeability in Staphylococcus aureus USA300 upto 0.13 uM by PI dye based analysis; type: functional, organism-based
DNA gyrase = DNA gyrase (Staphylococcus aureus, UniProt P0A0K8+P20831); assay: Inhibition of Staphylococcus aureus gyrase; type: protein-complex assay
Staphylococcus aureus [32] = assay: Effect on purine metabolism in Staphylococcus aureus USA300 at 4 times MIC by KEGG analysis; type: functional, organism-based
Staphylococcus aureus [33] = assay: Effect on lysine degradation in Staphylococcus aureus USA300 at 4 times MIC by KEGG analysis; type: functional, organism-based
Staphylococcus aureus [34] = assay: Effect on histidine metabolism in Staphylococcus aureus USA300 at 4 times MIC by KEGG analysis; type: functional, organism-based
Staphylococcus aureus [35] = assay: Antibacterial activity against Staphylococcus aureus USA300 assessed as acceleration of TCA cycle measured by decrease in NAD+/NADH ratio upto 0.25 ug/ml incubated for 5 hrs; type: functional, organism-based; details: dose <= 0.25 µg/ml
Staphylococcus aureus [36] = assay: Antibacterial activity against Staphylococcus aureus USA300 assessed as acceleration of TCA cycle measured by increase in icd mRNA level upto 0.25 ug/ml incubated for 6 hrs by RT-PCR analysis; type: functional, organism-based; details: dose <= 0.25 µg/ml
Staphylococcus aureus [37] = assay: Induction of ROS accumulation in Staphylococcus aureus USA300 upto 0.25 ug/ml incubated for 1 hr by DCFH-DA dye based analysis; type: functional, organism-based; details: dose <= 0.25 µg/ml
Staphylococcus aureus [38] = assay: Induction of H2O2 accumulation in Staphylococcus aureus USA300 upto 0.25 ug/ml incubated for 5 hrs; type: functional, organism-based; details: dose <= 0.25 µg/ml
Staphylococcus aureus [39] = assay: Antibacterial activity against Staphylococcus aureus USA300 at 2 times MIC measured upto 24 hrs in presence of alpha-tocopherol; type: functional, organism-based
J774.A1 = assay: Cytotoxicity against mouse J774.A1 cells assessed as cell viability upto 8 ug/ml incubated for 6 hrs by LDH assay; type: toxicity, cell-based; details: j774.a1, 6 h, dose < 8 µg/ml
Staphylococcus aureus [40] = assay: Antibacterial activity against methicillin-resistant Staphylococcus aureus infected in BALB/c mouse wound model assessed as decrease in wound diameter at 20 to 80 mg/kg administered topically on days 0, 3 and 6 measured after 12 days; type: functional, organism-based; details: dose 20-80 mg/kg, route top, time 12.0 day
Staphylococcus aureus [41] = assay: Antibacterial activity against methicillin-resistant Staphylococcus aureus infected in BALB/c mouse wound model assessed as reduction in bacterial load at 20 to 80 mg/kg administered topically on days 0, 3 and 6 measured after 12 days; type: functional, organism-based; details: dose 20-80 mg/kg, route top, time 12.0 day
Staphylococcus aureus [42] = assay: Antibacterial activity against methicillin-resistant Staphylococcus aureus infected in BALB/c mouse wound model assessed as organised collagen fibers in skin tissue at 20 to 80 mg/kg administered topically on days 0, 3 and 6 measured for 6 to 12 days by Masson's trichome staining based analysis; type: functional, organism-based; details: dose 20-80 mg/kg, route top, time 6-12 day
Staphylococcus aureus [43] = assay: Antibacterial activity against methicillin-resistant Staphylococcus aureus infected in BALB/c mouse wound model assessed as reversal of inflammation-induced TNF-alpha level in wound at 20 to 80 mg/kg administered topically on days 0, 3 and 6 measured after 12 days by ELISA; type: functional, organism-based; details: dose 20-80 mg/kg, route top, time 12.0 day
Staphylococcus aureus [44] = assay: Antibacterial activity against methicillin-resistant Staphylococcus aureus infected in BALB/c mouse wound model assessed as reversal of inflammation-induced IL-1beta level in wound at 20 to 80 mg/kg administered topically on days 0, 3 and 6 measured after 12 days by ELISA; type: functional, organism-based; details: dose 20-80 mg/kg, route top, time 12.0 day

Sequence of DNA gyrase (P0A0K8 whole entry): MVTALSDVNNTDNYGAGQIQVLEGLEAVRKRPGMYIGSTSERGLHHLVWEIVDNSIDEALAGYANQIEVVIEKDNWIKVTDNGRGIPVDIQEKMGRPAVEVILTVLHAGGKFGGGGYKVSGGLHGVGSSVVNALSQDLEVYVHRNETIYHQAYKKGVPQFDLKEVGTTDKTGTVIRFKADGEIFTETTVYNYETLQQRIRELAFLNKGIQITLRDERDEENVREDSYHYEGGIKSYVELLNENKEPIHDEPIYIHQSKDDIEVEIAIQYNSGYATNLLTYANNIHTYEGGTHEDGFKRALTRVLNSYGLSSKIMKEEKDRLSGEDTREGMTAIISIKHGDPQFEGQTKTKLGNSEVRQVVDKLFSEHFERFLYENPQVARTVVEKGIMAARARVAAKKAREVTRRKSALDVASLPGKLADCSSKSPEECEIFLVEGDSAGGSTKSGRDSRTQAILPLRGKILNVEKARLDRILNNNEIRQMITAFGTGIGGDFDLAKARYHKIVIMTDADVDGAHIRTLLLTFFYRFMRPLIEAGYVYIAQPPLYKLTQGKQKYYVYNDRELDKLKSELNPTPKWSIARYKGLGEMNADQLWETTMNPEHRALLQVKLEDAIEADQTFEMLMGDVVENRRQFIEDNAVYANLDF
Sequence of DNA gyrase (P20831 whole entry): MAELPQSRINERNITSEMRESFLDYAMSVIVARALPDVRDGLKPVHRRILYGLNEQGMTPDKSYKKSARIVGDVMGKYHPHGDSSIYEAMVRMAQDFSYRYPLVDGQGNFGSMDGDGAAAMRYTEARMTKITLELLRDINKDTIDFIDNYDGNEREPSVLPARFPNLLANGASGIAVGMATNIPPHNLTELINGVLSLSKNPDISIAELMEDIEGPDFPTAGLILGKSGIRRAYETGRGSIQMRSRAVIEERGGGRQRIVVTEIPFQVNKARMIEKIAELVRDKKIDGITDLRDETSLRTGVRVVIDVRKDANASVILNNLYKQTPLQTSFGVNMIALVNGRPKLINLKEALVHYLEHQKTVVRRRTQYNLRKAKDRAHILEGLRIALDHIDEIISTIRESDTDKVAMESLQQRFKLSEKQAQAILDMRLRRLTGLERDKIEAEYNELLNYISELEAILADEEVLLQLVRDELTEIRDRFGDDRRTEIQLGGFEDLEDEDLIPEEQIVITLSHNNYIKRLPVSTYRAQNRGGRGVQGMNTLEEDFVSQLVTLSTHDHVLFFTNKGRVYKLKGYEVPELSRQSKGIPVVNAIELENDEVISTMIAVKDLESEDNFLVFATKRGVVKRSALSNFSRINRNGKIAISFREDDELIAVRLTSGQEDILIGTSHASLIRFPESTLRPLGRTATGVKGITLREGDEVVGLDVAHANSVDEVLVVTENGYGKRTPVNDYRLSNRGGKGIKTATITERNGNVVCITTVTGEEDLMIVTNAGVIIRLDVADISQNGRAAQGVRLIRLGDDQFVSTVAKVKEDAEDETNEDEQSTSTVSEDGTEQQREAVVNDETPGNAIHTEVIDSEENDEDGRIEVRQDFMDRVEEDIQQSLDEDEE

Compound `CCn1c(=O)c(C(=O)Nc2nnc(-c3ccc(C)cn3)s2)c(O)c2ccccc21` has an MIC (Staphylococcus aureus [1]) of 0.03 µg/mL (≈ 0.0736 µM), an MIC (Staphylococcus aureus [2]) of 0.03 µg/mL (≈ 0.0736 µM) and an MIC (Staphylococcus aureus [3]) of 0.03 µg/mL (≈ 0.0736 µM). It also gave an MIC (Listeria monocytogenes [4]) of 0.02 µg/mL (≈ 0.0491 µM), an MIC (Staphylococcus aureus [5]) of 0.02 µg/mL (≈ 0.0491 µM) and an MIC (Streptococcus suis [6]) of 0.04 µg/mL (≈ 0.0982 µM). For the same compound, the MIC (Acinetobacter baumannii [7]) was > 512 µg/mL, the MIC (Acinetobacter baumannii [8]) was > 512 µg/mL and the MIC (Escherichia coli [9]) was > 512 µg/mL. The MIC (Klebsiella pneumoniae [10]) was > 512 µg/mL, the MBC (Staphylococcus aureus [11]) was 0.05 µg/mL (≈ 0.123 µM) and the MBC (Staphylococcus aureus [12]) was 0.05 µg/mL (≈ 0.123 µM). The MBC (Staphylococcus aureus [13]) was 0.16 µg/mL (≈ 0.393 µM), the MBC (Staphylococcus aureus [14]) was 0.05 µg/mL (≈ 0.123 µM) and the MBC (Staphylococcus aureus [15]) was 0.15 µg/mL (≈ 0.368 µM). The MBC (Staphylococcus aureus [16]) was 0.09 µg/mL (≈ 0.221 µM), the MBC (Staphylococcus aureus [17]) was 0.23 µg/mL (≈ 0.564 µM) and the MBC (Listeria monocytogenes [18]) was > 0.25 µg/mL. For the same compound, the MBC (Acinetobacter baumannii [19]) was > 512 µg/mL, the MBC (Escherichia coli [20]) was > 512 µg/mL and the MBC (Klebsiella pneumoniae [21]) was > 512 µg/mL. The MBC (Klebsiella pneumoniae [22]) was > 512 µg/mL, the Activity (Staphylococcus aureus [23]) was “Active” and the Activity (Streptococcus suis [24]) was “Active; Bacteria Were Suppressed Or Completely Eliminated”. The Activity (Listeria monocytogenes [25]) was “Active; Bacteria Were Suppressed Or Completely Eliminated”, the inhibition (Listeria monocytogenes [26]) was “Dose-dependent-effect” and the Activity (Staphylococcus aureus [27]) was “Active”. The Activity (Staphylococcus aureus [28]) was “Active”, the Activity (Staphylococcus aureus [29]) was “Active” and the Activity (Staphylococcus aureus [30]) was “Active”. For the same compound, the Activity (Staphylococcus aureus [31]) was “Active”, the IC50 (DNA gyrase) was 1190 nM and the Activity (Staphylococcus aureus [32]) was “Active”. For the same compound, the Activity (Staphylococcus aureus [33]) was “Active”, the Activity (Staphylococcus aureus [34]) was “Active” and the Activity (Staphylococcus aureus [35]) was “Active”. For the same compound, the Activity (Staphylococcus aureus [36]) was “Active”, the Activity (Staphylococcus aureus [37]) was “Active” and the Activity (Staphylococcus aureus [38]) was “Active”. For the same compound, the Activity (Staphylococcus aureus [39]) was “inactive”, the Activity (J774.A1) was “Non-toxic” and the Activity (Staphylococcus aureus [40]) was “Active”. The Activity (Staphylococcus aureus [41]) was “Active”, the Activity (Staphylococcus aureus [42]) was “Active” and the Activity (Staphylococcus aureus [43]) was “Active”. The Activity (Staphylococcus aureus [44]) was “Active”.

— ChEMBL document CHEMBL6121054, “Discovery of Metabolic Reprogramming 2-Quinolones as Effective Antimicrobials for MRSA-Infected Wound Therapy” (J Med Chem, 2025)
